Data on five molecules can be found in patent US10227347B2, “Purinyl-N-hydroxyl pyrimidine formamide derivative, preparation methods and uses thereof” (Guizhou Bailing Group Pharmaceutical CO., LTD., priority 2015, dated 2019).

Assay [1] concerns RPMI-8226 cells (multiple myeloma). Put plainly: Proliferation inhibition, RPMI-8226 (cck-8). Type of assay: cell-based. As to conditions: Homo sapiens, 96 h incubation. From the text:
(§1) Calculating the value of IC50 as per the formula: Y=background data+(top data−background data)/(1+10^((Log IC50−X)*rate of curve)). Where, Y refers to the inhibition ratio (%) and X refers to the compound concentration.

The target of another assay is T1, HDAC6 (Homo sapiens, UniProt Q9UBN7).
T1 construct: purchased BPS Bioscience 50006
T1 sequence (Q9UBN7 1-1215): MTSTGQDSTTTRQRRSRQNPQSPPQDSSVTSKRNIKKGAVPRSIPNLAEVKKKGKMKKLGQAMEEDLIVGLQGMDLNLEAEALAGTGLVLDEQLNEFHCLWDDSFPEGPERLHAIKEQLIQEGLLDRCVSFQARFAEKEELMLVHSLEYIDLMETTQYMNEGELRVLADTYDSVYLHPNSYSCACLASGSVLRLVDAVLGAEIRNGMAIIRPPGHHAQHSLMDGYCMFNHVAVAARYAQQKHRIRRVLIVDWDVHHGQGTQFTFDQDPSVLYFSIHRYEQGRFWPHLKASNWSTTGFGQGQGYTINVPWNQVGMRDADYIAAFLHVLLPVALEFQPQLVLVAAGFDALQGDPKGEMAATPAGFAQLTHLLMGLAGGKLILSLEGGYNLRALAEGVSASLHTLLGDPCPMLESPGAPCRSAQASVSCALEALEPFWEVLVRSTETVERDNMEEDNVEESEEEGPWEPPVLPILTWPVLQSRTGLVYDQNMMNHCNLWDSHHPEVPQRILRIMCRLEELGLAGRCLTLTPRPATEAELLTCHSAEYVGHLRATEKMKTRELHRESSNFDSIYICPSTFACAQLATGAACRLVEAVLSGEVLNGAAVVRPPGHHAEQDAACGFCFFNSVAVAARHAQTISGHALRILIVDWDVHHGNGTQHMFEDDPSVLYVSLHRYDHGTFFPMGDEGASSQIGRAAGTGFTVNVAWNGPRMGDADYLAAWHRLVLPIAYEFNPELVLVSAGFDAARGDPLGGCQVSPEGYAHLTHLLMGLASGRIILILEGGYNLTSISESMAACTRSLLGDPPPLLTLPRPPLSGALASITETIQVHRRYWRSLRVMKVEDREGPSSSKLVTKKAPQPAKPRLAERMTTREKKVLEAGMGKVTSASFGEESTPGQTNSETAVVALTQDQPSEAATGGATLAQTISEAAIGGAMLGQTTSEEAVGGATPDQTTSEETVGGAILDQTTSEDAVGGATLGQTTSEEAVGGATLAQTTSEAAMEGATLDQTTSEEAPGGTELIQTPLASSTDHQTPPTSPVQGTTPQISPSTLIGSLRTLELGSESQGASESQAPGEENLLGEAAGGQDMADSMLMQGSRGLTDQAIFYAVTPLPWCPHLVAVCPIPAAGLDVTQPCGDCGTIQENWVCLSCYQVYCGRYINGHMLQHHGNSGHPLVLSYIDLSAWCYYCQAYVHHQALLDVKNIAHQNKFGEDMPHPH
Put plainly: HDAC6 enzyme inhibition (Lys-Ac-AMC). Type of assay: biochemical. As to conditions: Table 4, graded. The procedure: (§2) Determining the inhibition capability of HDAC through the substrate method of fluorophore coupled acetylized peptide fragment (Lys-Ac-AMC). HDAC2-11 proteins of subtypes are purchased from BPS Bioscience Company with the Art. […] The reaction buffer system is a modified Tris buffer (pH7.0). The small molecule compounds are prepared and dissolved with 100% DMSO. […] Adding the compound into the reaction wells of the 384 well plate at the designed concentration, then adding 15 μL HDAC enzyme solution into the reaction wells (adding 15 μL blank buffer into the control well 0) for incubation under ambient temperature for 15 min; then adding 10 μL substrate solution to start reaction.
(§3) Analyzing the result data with the software GraphPad Prism and calculating the value of IC50 as per the formula: Y=background data+(top data−background data)/(1+10^((Log IC50−X)*rate of curve)). Where, Y refers to the inhibition ratio (%) and X refers to the compound concentration.

The test system of assay [2] is SUDHL-4 cells (B-cell lymphoma). In words: Proliferation inhibition, SUDHL-4 (cck-8). As to conditions: Homo sapiens, SU-DHL-4; 96 h incubation. Type of assay: cell-based.
Excerpt: as §1

For assay [3], the system named is Ramos cells (B-cell lymphoma). In words: Proliferation inhibition, Ramos (cck-8). The assay is classed as cell-based. Particulars: Homo sapiens, 96 h incubation.
Excerpt: as §1

The subject of assay [4] is MM1S cells (multiple myeloma). In words: Proliferation inhibition, MM1S (cck-8). The assay is classed as cell-based. Particulars: Homo sapiens, MM1.S; 96 h incubation.
Excerpt: as §1

A further assay deals with T2, HDAC7 (Homo sapiens, UniProt Q8WUI4).
T2 construct: purchased BPS Bioscience 50007
T2 sequence (Q8WUI4 518-952 limits assumed): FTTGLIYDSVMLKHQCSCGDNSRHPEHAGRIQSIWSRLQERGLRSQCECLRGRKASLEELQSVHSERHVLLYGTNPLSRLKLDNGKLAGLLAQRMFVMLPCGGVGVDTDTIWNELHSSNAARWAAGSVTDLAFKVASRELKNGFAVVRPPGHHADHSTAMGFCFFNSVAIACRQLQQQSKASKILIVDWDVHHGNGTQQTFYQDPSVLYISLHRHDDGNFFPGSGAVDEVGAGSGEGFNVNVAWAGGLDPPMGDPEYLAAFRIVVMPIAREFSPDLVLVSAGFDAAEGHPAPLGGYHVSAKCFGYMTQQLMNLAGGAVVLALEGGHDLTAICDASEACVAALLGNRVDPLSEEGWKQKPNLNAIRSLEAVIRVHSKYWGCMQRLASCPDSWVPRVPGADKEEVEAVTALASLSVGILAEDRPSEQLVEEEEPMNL
Put plainly: HDAC7 enzyme inhibition (Lys-Ac-AMC). Type of assay: biochemical. Particulars: Table 4, graded. The procedure: as §2, §3

A further assay deals with T3, PI3Kδ (Homo sapiens, UniProt O00329).
T3 construct: purchased Millipore 14-604-K
In words: PI3Kδ activity inhibition (Kinase-Glo). The assay is classed as biochemical. The procedure: Detecting the inhibition capability of the compound to PI3Kα and PI3Kδ activities with Kinase-Glo (purchased from Promege Company; Catalog No.: V3771). […] The reaction system also comprises substrates as PIP2 (4, 5-diphosphoinositide, purchased from Life Technologies Company) and ATP (triphosadenine, purchased from Sigma Company). The reaction buffer system comprises 50 mM HEPES (4-hydroxyethylpiperazine ethane sulfonic acid), 3 mM MgCl2, 1 mM EGTA (ethylene glycol bis(2-amino ethylether)quadrol), 100 mM NaCl, 0.03% CHAPS (3-[3-(cholamidopropyl)dimethylamino]-1-propanesulfonic acid), 2 mM DTT (dithiothreitol). The pH value of the reaction buffer is 7.5. […] Mixing the system evenly for incubation under ambient temperature (for 1 h in PI3Kα test and for 2 h in PI3Kδ test). After incubation, adding 10 μL Kinase-Glo which has been preheated to ambient temperature into each reaction well to terminate the reaction; shaking it in dark place for 15 min after it is mixed evenly, then measuring the fluorescence intensity with a microplate reader and analyzing the result data with the software GraphPad Prism.
Calculating the value of IC50 as per the formula: Y=background data+(top data−background data)/(1+10^((Log IC50−X)*rate of curve))
Where, Y refers to the inhibition ratio (%) and X refers to the compound concentration.
(In Kinase-Glo more light means more ATP remaining.)

What is called IC50 is the concentration at which inhibition is half-maximal. Read a low IC50 as greater potency in that assay.

T3 sequence (O00329 whole entry): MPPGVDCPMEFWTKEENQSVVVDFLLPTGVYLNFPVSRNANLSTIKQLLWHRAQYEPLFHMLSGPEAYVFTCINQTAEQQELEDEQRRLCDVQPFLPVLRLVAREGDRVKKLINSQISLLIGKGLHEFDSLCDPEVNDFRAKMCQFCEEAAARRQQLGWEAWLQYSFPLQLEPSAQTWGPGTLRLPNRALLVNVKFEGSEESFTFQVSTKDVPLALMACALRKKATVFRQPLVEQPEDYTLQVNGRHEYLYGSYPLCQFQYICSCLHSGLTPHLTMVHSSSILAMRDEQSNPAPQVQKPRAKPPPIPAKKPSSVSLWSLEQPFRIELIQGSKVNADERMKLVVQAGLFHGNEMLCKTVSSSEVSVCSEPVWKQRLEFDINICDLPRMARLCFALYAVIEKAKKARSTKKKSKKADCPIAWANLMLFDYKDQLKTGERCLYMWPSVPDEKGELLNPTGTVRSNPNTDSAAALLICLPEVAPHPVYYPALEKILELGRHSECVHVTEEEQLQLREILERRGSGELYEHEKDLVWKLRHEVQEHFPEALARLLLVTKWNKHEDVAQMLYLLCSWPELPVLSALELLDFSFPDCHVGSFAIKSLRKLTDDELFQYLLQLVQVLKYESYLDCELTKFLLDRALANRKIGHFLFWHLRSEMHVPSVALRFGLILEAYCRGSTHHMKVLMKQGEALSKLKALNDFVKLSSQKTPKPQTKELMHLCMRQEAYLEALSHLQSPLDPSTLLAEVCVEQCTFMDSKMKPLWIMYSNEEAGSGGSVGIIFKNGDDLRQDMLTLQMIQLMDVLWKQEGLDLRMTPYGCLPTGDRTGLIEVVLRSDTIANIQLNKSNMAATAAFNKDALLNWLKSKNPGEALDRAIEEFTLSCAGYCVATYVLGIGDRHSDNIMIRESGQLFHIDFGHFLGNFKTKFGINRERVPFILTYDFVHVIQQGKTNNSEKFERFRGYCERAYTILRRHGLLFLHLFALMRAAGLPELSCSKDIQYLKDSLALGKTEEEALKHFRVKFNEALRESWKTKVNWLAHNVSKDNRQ
T3 sequence (P27986 whole entry partner): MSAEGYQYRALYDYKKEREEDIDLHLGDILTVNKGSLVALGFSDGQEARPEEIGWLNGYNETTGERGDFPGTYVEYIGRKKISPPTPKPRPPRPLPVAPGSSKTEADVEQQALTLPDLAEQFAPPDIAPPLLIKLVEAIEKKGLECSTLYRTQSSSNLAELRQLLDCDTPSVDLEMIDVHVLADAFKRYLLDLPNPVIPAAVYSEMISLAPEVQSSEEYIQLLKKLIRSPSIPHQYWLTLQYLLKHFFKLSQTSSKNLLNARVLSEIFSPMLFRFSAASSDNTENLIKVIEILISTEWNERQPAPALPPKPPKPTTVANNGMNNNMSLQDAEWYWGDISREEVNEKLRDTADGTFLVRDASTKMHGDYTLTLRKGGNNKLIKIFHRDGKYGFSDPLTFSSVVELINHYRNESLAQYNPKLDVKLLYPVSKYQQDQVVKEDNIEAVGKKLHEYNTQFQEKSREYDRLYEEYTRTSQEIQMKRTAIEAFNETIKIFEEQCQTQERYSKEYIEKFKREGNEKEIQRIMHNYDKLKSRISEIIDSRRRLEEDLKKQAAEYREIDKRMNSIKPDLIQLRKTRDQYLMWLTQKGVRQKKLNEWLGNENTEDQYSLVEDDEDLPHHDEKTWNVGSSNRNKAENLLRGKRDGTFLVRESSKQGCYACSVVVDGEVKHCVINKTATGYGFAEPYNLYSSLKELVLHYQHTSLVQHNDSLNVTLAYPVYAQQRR

Turning to `COc1ccc(-c2nc(N3CCOCC3)c3nc(CN(C)c4ncc(C(=O)NO)cn4)n(C)c3n2)cn1` [CLJ-1, 2-(((2-(6-methoxypyridine-3-yl)-9-methyl-6-morpholine-9H-purine-8-yl))methyl(methyl)amino)-N-hydroxyl pyrimidine-5-formamide], the IC50 in assay [1] fell in the range of 1 to 10 nM; against HDAC6, 1 to 100 nM; in assay [2], 1 to 10 nM; in assay [3], 0.1 to 1 nM; in assay [4] it was 0.1 to 1 nM; at HDAC7, 1000 to 10000 nM. Further, the IC50 against PI3Kδ (Table 1, graded) was in the range of 100 to 1000 nM; on PI3Kδ (Table 4, graded), 100 to 1000 nM.

Turning to `CN(Cc1nc2c(N3CCOCC3)nc(-c3cnc(N)nc3)nc2n1C)c1ncc(C(=O)NO)cn1` [CLJ-11, 2-(((2-(2-aminopyrimidine-5-yl)-9-methyl-6-morpholine-9H-purine-8-yl))methyl(methyl)amino)-N-hydroxyl pyrimidine-5-formamide], the IC50 fell in the range of 10 to 100 nM in assay [1]; 1 to 100 nM on HDAC6; 10 to 100 nM in assay [2]; 10 to 100 nM in assay [3]; 1 to 10 nM in assay [4]; 100 to 1000 nM against HDAC7. The half-inhibitory concentration (IC50) against PI3Kδ (Table 1, graded) lay in the range of 100 to 1000 nM; against PI3Kδ (Table 4, graded) it was 1 to 100 nM.

As for `COc1ccc(-c2nc(N3CCOCC3)c3nc(CN(C)c4ncc(C(=O)NO)cn4)n(C)c3n2)cc1` [CLJ-29, 2-(((2-(4-methoxyphenyl)-9-methyl-6-morpholine-9H-purine-8-yl))methyl(methyl)amino)-N-hydroxyl pyrimidine-5-formamide], the IC50 in assay [1] was in the range of 0.1 to 1 nM; on HDAC6, 1 to 100 nM; in assay [2], 0.1 to 1 nM; in assay [3], 1 to 10 nM; in assay [4] it was 0.1 to 1 nM; on HDAC7 it was 1000 to 10000 nM. Also, the half-maximal inhibitory concentration (IC50) against PI3Kδ (Table 4, graded) was above 10000 nM.

Turning to `CN(Cc1nc2c(N3CCOCC3)nc(-c3ccc(N)cc3)nc2n1C)c1ncc(C(=O)NO)cn1` [CLJ-44], the IC50 in assay [1] is 0.1 to 1 nM; against HDAC6 it was 1 to 100 nM; in assay [2] it was 1 to 10 nM; in assay [3], 1 to 10 nM; in assay [4], 1 to 10 nM; against HDAC7 it was 1000 to 10000 nM. Further, the IC50 on PI3Kδ (Table 4, graded) was above 10000 nM.

Consider `Cc1[nH]c2ccccc2c1CCNCc1ccc(/C=C/C(=O)NO)cc1` [LBH589, panobinostat, reference compound], for which the IC50 is 1 to 10 nM in assay [1]; 1 to 10 nM in assay [2]; 0.1 to 1 nM in assay [3]; 1 to 10 nM in assay [4]; above 10000 nM at PI3Kδ (Table 4, graded).
